Experimental data published in patent publication US7115639B2, “Pyrrolidine oxadiazole- and thiadiazole oxime derivatives being oxytocin receptor antagonists” (Applied Research Systems ARS Holding N.V., priority 2001, dated 2006).

What was measured:
[1] = system: oxytocin-induced uterine contractions in the rat; assay: In vivo model for inhibition of uterine contractions; conditions: subcutaneous, NP3S, 5 ml/kg
Procedure: d) In Vivo Model for Inhibition of Uterine Contractions
The assay intends to show the biological effect of tested compounds in an in vivo model of preterm labor, premature birth.
Non-pregnant Charles River CD(SD) BR female rats (9–10 weeks old, 200–250 g) were treated at 18 and 24 hours before the experiment with 250 μg/kg, i.p. diethylstilbestrol (DES). For the assay, the animal was anaesthetised by urethane (1.75 g/kg, i.p.) and placed on an homeothermic operating table. The trachea was isolated and cannulated with a suitable polyethylene (PE) tubing. A midline incision at the hypogastrium level was made and one uterine horn exposed, its cephalic end cannulated with a PE240 tubing and, after filling the internal cavity with 0.2 ml of sterile physiological saline, connected to a “Gemini” amplifying/recording system via a P231D Gould Statham pressure transducer, in, order to measure said pressure. For the i.v. route of administration of the test compounds, one jugular vein was isolated and cannulated with a PE60 tubing connected to a butterfly needle to allow the administration by a dispensing syringe. In the case of intraduodenal administration of the test compounds, the duodenum was isolated and similarly cannulated through a small incision in its wall. One carotid artery was also isolated and cannulated with PE60 catheter and connected to a suitable syringe for blood sample collection (see below). After a stabilization period, the same dose of oxytocin was repeatedly injected intravenously at 30-min intervals. […] Further injections of the same dose of oxytocin were then made for a suitable time after treatment to assess inhibitory effects of the compounds under study. The contractile response of the uterus to oxytocin was quantified by measuring the intrauterine pressure and the number of contractions.
A total of six animals is forming one group which is treated with a given test compound at a given concentration (see above).
The effect of the test compounds were evaluated by comparing pre- and post-treatment pressure values. In addition, at 2, 30, 90 and 210 minutes after test compound administration, a 0.5-ml blood sample was withdrawn from the cannulated carotid artery of each experimental animal. Plasma was obtained by standard laboratory procedure and the resulting samples were stored at −20° C.
The activities of the pyrrolidine derivatives claimed in the formula I were assessed using the above described in vivo biological assay. The values refer to the capacity of the example compound according to formula I to effectively antagonize oxytocin-induced uterine contractions in the rat.

[2] = system: oxytocin-induced uterine contractions in the rat; assay: as above; conditions: subcutaneous, NP3S, 5 ml/kg, 10 mg/kg

For `CO/N=C1/C[C@@H](c2nc(CCO)no2)N(C(=O)c2ccc(-c3ccccc3)cc2)C1` [(3Z,5S)-1-([1,1′-biphenyl]-4-ylcarbonyl)-5-[3-(2-hydroxyethyl)-1,2,4-oxadiazol-5-yl]-3-pyrrolidinone O-methyloxime], which “% Reduction of Uterine Contraction” value ([1]; 1 mg/kg) is on record?
The value was −13.2 ± 5.6%.

And the “% Reduction of Uterine Contraction” value ([1]; 3 mg/kg)?
The value was −30.2 ± 1.1%.

What about the “% Reduction of Uterine Contraction” value ([1]; 30 mg/kg) of the same molecule?
The value was −57.5 ± 8.6%.

And the “% Reduction of Uterine Contraction” value [2]?
Its value is −39.7 ± 7.2%.

And the melting point?
The melting point was 141 °C.
